# Measurements: patent publication US20250325677A1, “STAT6 DEGRADERS” (Gilead Sciences, Inc., priority 2024, published 2025)
# pEC50: −log10 of the molar value. Read-outs that look alike come from different tables or passages of the source.
# Tests used:
# eotaxin-3 release = test: Human whole blood eotaxin-3 assay (IL-4 stimulated); type: cell-based
# Experimental: Human Whole Blood Eotaxin-3 Assay
# This was a human whole blood assay using recombinant human Interleukin 4 to stimulate the blood and measuring the ability of the test compounds to inhibit eotaxin-3 release. Compounds or media were added to the wells and incubated together with human whole blood for 120 minutes at 37° C. Subsequently, recombinant IL-4 was added at a final concentration of 0.4 nM. The plates were incubated for 48 hours.
# Test compounds which inhibited eotaxin-3 release upon stimulation with human IL-4 (E. coli) interfered with the signaling in human whole blood are expected to have activity in human beings. […] The EC50 value indicates at which concentration test compounds were active and in inhibiting the eotaxin-3 release. As eotaxin-3 release is down-stream of STAT6 signaling both STAT6 inhibitors and STAT6 degraders are active in this assay.
# The data from the human whole blood eotaxin-3 assay is shown below for Examples 3e27, 3e50, 3e17, and 3e51 (where the effect in % is plotted against the test concentration in M on a log-scale).
# STAT6 = STAT6 (Homo sapiens (Human), UniProt P42226); test: STAT6 degrader assay (HiBiT, HeLa LgBiT clone 4.14); type: cell-based
# STAT6, sequence (P42226 whole entry): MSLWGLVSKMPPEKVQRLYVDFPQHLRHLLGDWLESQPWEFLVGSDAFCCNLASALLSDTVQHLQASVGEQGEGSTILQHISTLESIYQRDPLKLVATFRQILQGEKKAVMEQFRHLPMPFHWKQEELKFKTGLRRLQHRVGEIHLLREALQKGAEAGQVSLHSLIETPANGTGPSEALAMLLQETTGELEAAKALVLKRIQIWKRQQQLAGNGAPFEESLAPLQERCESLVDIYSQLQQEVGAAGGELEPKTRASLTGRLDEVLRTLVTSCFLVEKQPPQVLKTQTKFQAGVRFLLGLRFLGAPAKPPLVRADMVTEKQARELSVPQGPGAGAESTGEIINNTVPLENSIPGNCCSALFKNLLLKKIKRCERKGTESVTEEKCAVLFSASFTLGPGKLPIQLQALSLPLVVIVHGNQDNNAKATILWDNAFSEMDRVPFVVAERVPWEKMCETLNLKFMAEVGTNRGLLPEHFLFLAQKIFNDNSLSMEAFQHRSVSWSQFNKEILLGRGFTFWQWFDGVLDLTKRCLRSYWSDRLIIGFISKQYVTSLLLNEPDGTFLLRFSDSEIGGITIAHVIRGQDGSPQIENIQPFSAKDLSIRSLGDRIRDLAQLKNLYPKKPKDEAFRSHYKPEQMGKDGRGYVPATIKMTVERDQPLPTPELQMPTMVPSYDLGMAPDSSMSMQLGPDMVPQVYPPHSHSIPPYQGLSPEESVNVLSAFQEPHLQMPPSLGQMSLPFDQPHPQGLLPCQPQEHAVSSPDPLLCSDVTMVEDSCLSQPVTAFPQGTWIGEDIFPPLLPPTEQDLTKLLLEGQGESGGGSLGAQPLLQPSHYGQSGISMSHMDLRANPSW
# Outline: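 DC50 (nM) comes from luminescence of non-degraded STAT6 read 0.5 h after Nano-GLO addition, following 4-24 h compound exposure at 37° C. Cells were HeLa clone 4.14 expressing LgBiT with a CRISPR HiBiT tag on endogenous STAT6; 50 μM terfenadine set full degradation.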
# [1] = human whole blood, IL-4 0.4 nM, 48 hours, geometric mean, given for compounds with >80% Emax, read-out: Eotaxin-3 EC50
# [2] = HeLa LgBiT clone 4.14, 4-24 h; geometric mean; given for compounds with >80% Emax; read-out: STAT6 degradation DC50
pEC50 (eotaxin-3 release; [1]),Compound,further results
8.64,"C[C@H]1CN(Cc2ccc3c(c2)n(C2CC2)c(=O)n3[C@H]2CCC(=O)NC2=O)CCN1CC1CCN(C(=O)c2ccc(C3CCN([C@@H](C)c4cc5c(-c6ccc(N)nc6)ccnc5n4C)CC3)cc2)CC1 (single isomer, unassigned) [Example 3e50]",DC50 (STAT6; [2]): 1 nM
,"C[C@H]1CN(Cc2ccc3c(c2)n(C)c(=O)n3C2CCC(=O)NC2=O)CCN1CC1CCN(C(=O)c2ccc(C3CCN([C@@H](C)c4cc5c(-c6ccc(N)nn6)ccnc5n4C)CC3)cc2)CC1 (stereo partly drawn) [Example 3e52, 3-(5-(((S)-4-((1-(4-(1-((S)-1-(4-(6-aminopyridazin-3-yl)-1-methyl-1H-pyrrolo[2,3-b]pyridin-2-yl)ethyl)piperidin-4-yl)benzoyl)piperidin-4-yl)methyl)-3-methylpiperazin-1-yl)methyl)-3-methyl-2-oxo-2,3-dihydro-1H-benzo[d]imidazol-1-yl)piperidine-2,6-dione]","EC50 (eotaxin-3 release; Homo sapiens, 48 h, read-out: Eotaxin-3 EC50 (nM)): 1.5 nM; DC50 (STAT6; read-out: STAT6 degradation DC50; HeLa LgBiT clone 4.14, 4-24 h; geometric mean; given for compounds with >80% Emax): 0.9 nM"
8.89,"C[C@H]1CN(Cc2ccc3c(c2)n(C)c(=O)n3C2CCC(=O)NC2=O)CCN1CC1CCN(C(=O)c2ccc(C3CCN([C@@H](C)c4cc5c(-c6ccc(N)nc6)ccnc5n4C)CC3)cc2)CC1 (stereo partly drawn) [Example 3e16, 3-(5-(((S)-4-((1-(4-(1-((S)-1-(4-(6-aminopyridin-3-yl)-1-methyl-1H-pyrrolo[2,3-b]pyridin-2-yl)ethyl)piperidin-4-yl)benzoyl)piperidin-4-yl)methyl)-3-methylpiperazin-1-yl)methyl)-3-methyl-2-oxo-2,3-dihydro-1H-benzo[d]imidazol-1-yl)piperidine-2,6-dione]",DC50 (STAT6; [2]): 0.4 nM
8.92,"C[C@H]1CN(Cc2cc3c(cc2F)n([C@H]2CCC(=O)NC2=O)c(=O)n3C)CCN1CC1CCN(C(=O)c2ccc(C3CCN([C@@H](C)c4cc5c(-c6ccc(N)nc6)ccnc5n4C)CC3)cc2)CC1 (single isomer, unassigned) [Example 3e63]",DC50 (STAT6; [2]): 0.2 nM
7.02,"CNc1ccc(-c2ccnc3c2cc(CN2CC=C(c4c(F)cc(C(=O)N5CCC(CN6CCN(Cc7ccc8c(c7)C7(CC7)C(=O)N8C7CCC(=O)NC7=O)C[C@@H]6C)CC5)cc4F)CC2)n3C)cn1 (stereo partly drawn) [Example 3h37, 3-(5′-(((S)-4-((1-(3,5-difluoro-4-(1-((1-methyl-4-(6-(methylamino)pyridin-3-yl)-1H-pyrrolo[2,3-b]pyridin-2-yl)methyl)-1,2,3,6-tetrahydropyridin-4-yl)benzoyl)piperidin-4-yl)methyl)-3-methylpiperazin-1-yl)methyl)-2′-oxospiro[cyclopropane-1,3′-indolin]-1′-yl)piperidine-2,6-dione]",
8.08,"CNc1ccc(-c2ccnc3c2cc([C@H](C)N2CC=C(c4c(F)cc(C(=O)N5CCC(CN6CCN(Cc7ccc8c(c7)C7(CC7)C(=O)N8C7CCC(=O)NC7=O)C[C@@H]6C)CC5)cc4F)CC2)n3C)cn1 (stereo partly drawn) [Example 3h36, 3-(5′-(((S)-4-((1-(3,5-difluoro-4-(1-((S)-1-(1-methyl-4-(6-(methylamino)pyridin-3-yl)-1H-pyrrolo[2,3-b]pyridin-2-yl)ethyl)-1,2,3,6-tetrahydropyridin-4-yl)benzoyl)piperidin-4-yl)methyl)-3-methylpiperazin-1-yl)methyl)-2′-oxospiro[cyclopropane-1,3′-indolin]-1′-yl)piperidine-2,6-dione]",
8.08,"CC[C@H]1CN(Cc2ccc3c(c2)n(C)c(=O)n3[C@H]2CCC(=O)NC2=O)CCN1CC1CCN(C(=O)c2ccc(C3CCN([C@@H](C)c4cc5c(-c6ccc(N)nc6)ccnc5n4C)CC3)cc2)CC1 (single isomer, unassigned) [Example 3e59]",
6.64,"C[C@H]1CN(c2ccc3c(c2)C2(CC2)C(=O)N3C2CCC(=O)NC2=O)CCN1CC1CCN(C(=O)c2ccc(C3CCN([C@@H](C)c4cc5c(-c6ccc(N)nc6)ccnc5n4C)CC3)cc2)CC1 (stereo partly drawn) [Example 3h46, 3-(5′-((S)-4-((1-(4-(1-((S)-1-(4-(6-aminopyridin-3-yl)-1-methyl-1H-pyrrolo[2,3-b]pyridin-2-yl)ethyl)piperidin-4-yl)benzoyl)piperidin-4-yl)methyl)-3-methylpiperazin-1-yl)-2′-oxospiro[cyclopropane-1,3′-indolin]-1′-yl)piperidine-2,6-dione]",
8.44,"CNc1ccc(-c2ccnc3c2cc([C@H](C)N2CC=C(c4c(C)cc(C(=O)N5CCC(CN6CCN(Cc7ccc8c(c7)C7(CC7)C(=O)N8C7CCC(=O)NC7=O)C[C@@H]6C)CC5)cc4F)CC2)n3C)cn1 (stereo partly drawn) [Example 3h20, 3-(5′-(((S)-4-((1-(3-fluoro-5-methyl-4-(1-((S)-1-(1-methyl-4-(6-(methylamino)pyridin-3-yl)-1H-pyrrolo[2,3-b]pyridin-2-yl)ethyl)-1,2,3,6-tetrahydropyridin-4-yl)benzoyl)piperidin-4-yl)methyl)-3-methylpiperazin-1-yl)methyl)-2′-oxospiro[cyclopropane-1,3′-indolin]-1′-yl)piperidine-2,6-dione]",
8.59,"C[C@H]1CN(Cc2ccc3c(c2)C2(CC2)C(=O)N3C2CCC(=O)NC2=O)CCN1CC1CCN(C(=O)c2ccc(C3CCN([C@@H](C)c4cc5c(-c6ccc(N)nc6)ccnc5n4C)CC3)cc2)CC1 (stereo partly drawn) [Example 3h29, 3-(5′-(((S)-4-((1-(4-(1-((S)-1-(4-(6-aminopyridin-3-yl)-1-methyl-1H-pyrrolo[2,3-b]pyridin-2-yl)ethyl)piperidin-4-yl)benzoyl)piperidin-4-yl)methyl)-3-methylpiperazin-1-yl)methyl)-2′-oxospiro[cyclopropane-1,3′-indolin]-1′-yl)piperidine-2,6-dione]",
7.71,"C[C@@H](c1cc2c(-c3ccc(N)nc3)ccnc2n1C)N1CCC(c2ccc(C(=O)N3CCC(CN4CCN(c5cc6c(cc5F)n(C5CCC(=O)NC5=O)c(=O)n6C)CC4)CC3)cc2)CC1 (stereo partly drawn) [Example 3h44, 3-(5-(4-((1-(4-(1-((S)-1-(4-(6-aminopyridin-3-yl)-1-methyl-1H-pyrrolo[2,3-b]pyridin-2-yl)ethyl)piperidin-4-yl)benzoyl)piperidin-4-yl)methyl)piperazin-1-yl)-6-fluoro-3-methyl-2-oxo-2,3-dihydro-1H-benzo[d]imidazol-1-yl)piperidine-2,6-dione]",
,"CCCS(=O)(=O)N[C@H]1C[C@@H](N(C)c2ncnc3[nH]ccc23)C1 [abroticinib, abrocitinib, reference compound]","pEC50 (eotaxin-3 release; human whole blood, hIL-4 (E. coli) stimulation, read-out: EC50 of inhibition of eotaxin-3 release (reference compound)): ~6.35; Emax (eotaxin-3 release; human whole blood, hIL-4 (E. coli) stimulation, read-out: Emax of inhibition of eotaxin-3 release): ~100%"
7.50,"C[C@H]1CN(Cc2cc3c(cc2F)N(C2CCC(=O)NC2=O)C(=O)C3(C)C)CCN1CC1CCN(C(=O)c2ccc(C3CCN([C@@H](C)c4cc5c(-c6ccc(N)nc6)ccnc5n4C)CC3)cc2)CC1 (stereo partly drawn) [Example 3h35, 3-(5-(((S)-4-((1-(4-(1-((S)-1-(4-(6-aminopyridin-3-yl)-1-methyl-1H-pyrrolo[2,3-b]pyridin-2-yl)ethyl)piperidin-4-yl)benzoyl)piperidin-4-yl)methyl)-3-methylpiperazin-1-yl)methyl)-6-fluoro-3,3-dimethyl-2-oxoindolin-1-yl)piperidine-2,6-dione]",
8.36,"CC[C@H]1CN(Cc2ccc3c(c2)n(C)c(=O)n3[C@@H]2CCC(=O)NC2=O)CCN1CC1CCN(C(=O)c2ccc(C3CCN([C@@H](C)c4cc5c(-c6ccc(N)nc6)ccnc5n4C)CC3)cc2)CC1 (single isomer, unassigned) [Example 3e57]",
